Consider two compounds from patent publication US20240109910A1, “HEXAHYDRO-5,8-EPOXYCYCLOHEPTA[c]PYRAZOLE DERIVATIVES USEFUL AS MODULATORS OF THE CB1 AND / OR CB2 RECEPTORS” (JANSSEN PHARMACEUTICA NV, priority 2019, published 2024).

The target in one test is hCB1 receptor (Homo sapiens, UniProt P21554). Put plainly: Agonism of CB1 by detection of cAMP using HTRF. Conditions: CHO cells stably expressing CB1 receptor; for EC50: cAMP HTRF, forskolin-stimulated, average if tested more than once, read-out: hCB1 CHO EC50; for Emax: normalized to DMSO and maximal activation (5 nM CP55940). Type of test: cell-based. As to the method: (§1) Method for Assaying Agonism of CB1 or CB2 by Detection of cAMP Using Homogeneous Time-Resolved Fluorescence (HTRF®)
hCB1 receptor, sequence (P21554 whole entry): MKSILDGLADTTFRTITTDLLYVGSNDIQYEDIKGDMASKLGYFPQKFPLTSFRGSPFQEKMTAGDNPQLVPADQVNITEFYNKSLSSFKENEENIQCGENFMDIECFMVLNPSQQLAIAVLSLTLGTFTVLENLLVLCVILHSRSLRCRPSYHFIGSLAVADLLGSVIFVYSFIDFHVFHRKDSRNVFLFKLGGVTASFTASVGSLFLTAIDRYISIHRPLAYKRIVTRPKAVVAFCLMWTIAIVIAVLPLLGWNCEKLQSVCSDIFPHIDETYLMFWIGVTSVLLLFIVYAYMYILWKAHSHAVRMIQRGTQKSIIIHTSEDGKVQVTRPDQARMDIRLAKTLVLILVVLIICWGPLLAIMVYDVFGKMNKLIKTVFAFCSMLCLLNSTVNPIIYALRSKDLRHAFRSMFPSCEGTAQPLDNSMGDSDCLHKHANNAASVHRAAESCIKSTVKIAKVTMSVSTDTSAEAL
(§2) CHOP-K1 cells stably expressing the CB1 receptor (PerkinElmer, ES-110-C) or the CB2 receptor (PerkinElmer, ES-111-CF) were seeded into 384 well white TC-treated plates (Greiner 781080) at 7000 cells per well in Ham's media (Gibco #31765-035) supplemented with 10% FBS (Gibco #16000-044) and 500 μg/mL Geneticin (Gibco #10131-027) and cultured overnight. The next day, plates were washed one time in assay buffer (HBSS with Ca^2+ and Mg^2+ (Corning #21-023-CV)+20 mM HEPES (Corning #25-060-Cl) and 0.01% BSA (Sigma A2153)). In a separate compound plate (Greiner 781201-906), 50 nL of test compound or DMSO was transferred using the Echo 550 (Labcyte), then 40 μL/well of assay buffer with 0.5 mM IBMX, 2 μM Forskolin (Sigma F3917), and 0.01% BSA was added. For the CB1 assay, assay buffer was dumped from the cell plate and fresh assay buffer containing 0.5 mM IBMX (Sigma I5679) was added at 30 μL/well, and the plate was incubated for 1 hr at 37° C., 5% CO2. Following the IBMX pre-treatment step, buffer was dumped from the cell plate, and 20 μL/well of the assay buffer with test compound was transferred into the cell plate with a subsequent incubation of 20 min at room temperature. Reagents for cAMP detection (cisbio 62AM4PEJ) were prepared and subsequently transferred to the cell plate at 20 μL/well. Following a 1 hr incubation at room temperature, the plate was read on the Pherastar FX (BMG, excitation 320 nm, detection at 620 nm (donor) and 665 nm (acceptor)). The ratio of signal at 665 nm/620 nm was determined for each well in the plate. For each assay day, a cAMP standard curve was run in parallel to assess the range of response and determine the concentration of cAMP in each well. Control wells (n=16 of each) with no activation of CB1 receptor (DMSO) and maximal activation (5 nM CP55940, Sigma) were used to normalize the data and to determine signal-to-background ratio and Z′. For the CB2 assay, conditions were as described above for the CB1 assay, except that the IBMX preincubation step was not used and that the 20 min compound incubation step occurred in the incubator at 37° C., 5% CO2.
(§3) EC50 values were calculated from dose response curves by nonlinear regression analysis using PRISM software.
(§4) Representative compounds of the present invention were tested according to the procedures described in Biological Example 1 above, with results as listed in Table 3, below. If a compound was tested more than once (due to multiple samples or batches), then the value listed in Table 3 below represents the average of the measured values.
Background: TR-FRET usually uses a lanthanide donor and a delayed reading to cut background.

Another test deals with hCB2 receptor (Homo sapiens, UniProt P34972). Put plainly: Agonism of CB2 by detection of cAMP using HTRF. Format: cell-based. Conditions: CHO cells stably expressing CB2 receptor; for EC50: cAMP HTRF, forskolin-stimulated, average if tested more than once, read-out: hCB2 CHO EC50; for Emax: normalized to DMSO and maximal activation (5 nM CP55940). As to the method: as §1, §2, §3, §4
hCB2 receptor, sequence (P34972 whole entry): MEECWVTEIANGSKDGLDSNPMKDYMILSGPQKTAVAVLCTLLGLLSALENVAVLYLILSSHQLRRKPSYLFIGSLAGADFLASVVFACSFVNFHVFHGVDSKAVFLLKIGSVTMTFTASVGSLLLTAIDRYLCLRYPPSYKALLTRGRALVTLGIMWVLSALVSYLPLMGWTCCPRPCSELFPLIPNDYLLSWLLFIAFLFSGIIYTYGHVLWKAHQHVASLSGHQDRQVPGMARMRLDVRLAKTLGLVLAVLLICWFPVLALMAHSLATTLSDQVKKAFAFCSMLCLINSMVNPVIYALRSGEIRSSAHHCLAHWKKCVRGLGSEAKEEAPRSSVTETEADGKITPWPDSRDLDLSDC

As to `O=C(NC12CC3CC(CC1C3)C2)c1nn(-c2ccc(F)cc2F)c2c1CC1CCC2O1` [Compound 41, 1-(2,4-difluorophenyl)-N-((2R,3as,5S,6as)-hexahydro-2,5-methanopentalen-3a(1H)-yl)-1,4,5,6,7,8-hexahydro-5,8-epoxycyclohepta[c]pyrazole-3-carboxamide], at hCB1 receptor, the EC50 (in general, the concentration needed to bring the measured effect to its halfway point) stood at 0.7 nM and the Emax (as a rule, the maximal effect, on the per cent scale that the assay sets) was 98%. For the same compound, on hCB2 receptor, the EC50 came to 0.08 nM and the Emax amounted to 99.1%.

As to `O=C(NC[C@]12C[C@@H]3C[C@@H](C[C@@H](C3)C1)C2)c1nn(-c2ccc(F)cc2F)c2c1CC1CCC2O1` [Compound 42, N-(((3r,5r,7r)-adamantan-1-yl)methyl)-1-(2,4-difluorophenyl)-1,4,5,6,7,8-hexahydro-5,8-epoxycyclohepta[c]pyrazole-3-carboxamide], at hCB1 receptor, the EC50 is 260 nM and the Emax is 98.2%. In addition, at hCB2 receptor, the EC50 was 10.3 nM and the Emax was 77.1%.
